These are literature values, as cited in PMC2929769 (Toxicon : official journal of the International Society on …, 2010).

For this series, the system named is RTA. To be noted: read-out: RTA IC50.

In general, IC50 refers to the point on the concentration scale where inhibition reaches its midpoint. For the molecule `Nc1nc(=O)c(CCCc2ccc(C(=O)O)cc2)c(O)[nH]1` [PBA, 4-[3-(2-amino-1,4-dihydro-6-hydroxy-4-oxo-5-pyrimidinyl)propyl]-benzoic acid], the IC50 was 270 µM.
